Earlier results, collected in patent publication US4174406A, “Terpenylaminoalkanol fish toxicants” (priority 1977, dated 1979).
Where two headings read alike, the source gives them in different places.

System: Carp
Conditions: registered fish toxicants, cited from earlier work

antimycin
effect of water pH on activity: adversely affected by pH
selectivity for carp: non-selective for carp
effect of water pH on activity (listed as antimyein): adversely affected by waters of high pH

C=C(C)[C@H]1Cc2c(ccc3c2O[C@@H]2COc4cc(OC)c(OC)cc4[C@@H]2C3=O)O1 [Rotenone]
effect of water pH on activity: adversely affected by waters of high pH
selectivity for carp: non-selective for carp
